# Test results published in patent US8586611B2 (priority 2005, dated 2013).
# Columns and labels:
# Assay type in all cases: in vivo
# Phytophthora infestans [1] = experiment: whole plant or invertebrate; details: tomato late blight
# [2] = system: Erysiphe graminis f. sp. tritici; experiment: Test E: wheat powdery mildew, spray the day before inoculation (disease rating, 100 = 100% disease control)
# Summary of the method: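 Wheat seedlings sprayed to run-off with compound suspended in acetone/water 50/50 with 250 ppm Trem 014 (200 ppm equivalent to 500 g/ha); inoculated next day with Erysiphe graminis f. sp. tritici spore dust. Kept 7 days at 20° C, then rated 0–100% disease control versus controls.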
# Phytophthora infestans [3] = experiment: whole plant or invertebrate; details: tomato late blight; remark: listed apart in the source
# Plasmopara viticola = experiment: Test B: grape downy mildew, spray 24 h after inoculation (disease rating, 100 = 100% disease control)
# Summary of the method: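 Grape seedlings were inoculated with Plasmopara viticola and held 24 h saturated at 20 °C, then sprayed to run-off with compound suspension (acetone/water with 250 ppm Trem 014; 200 ppm ≈ 500 g/ha). After 5 days at 20 °C and 24 h saturation, disease was rated from 0 to 100% control versus untreated.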
# [4] = spray the day before inoculation, compounds without asterisk (not 40 or 10 ppm)
# [5] = spray 17 h after inoculation, compounds without asterisk (not 40 or 10 ppm)
# [6] = spray 24 h after inoculation, compounds without asterisk (not 40 or 10 ppm)
# [7] = spray the day before inoculation, tested at 10 ppm
# [8] = spray 17 h after inoculation, tested at 10 ppm
# [9] = spray 24 h after inoculation, tested at 10 ppm
# [10] = sprayed the day before inoculation, tested at 10 ppm (**)
# [11] = sprayed the day before inoculation, 7 days at 20° C., tested at 10 ppm (**)
# [12] = sprayed 17 h after inoculation, tested at 10 ppm (**)
# [13] = sprayed 24 h after inoculation, tested at 10 ppm (**)
# [14] = sprayed the day before inoculation, unmarked compounds (no asterisk, not 40 or 10 ppm)
# [15] = sprayed the day before inoculation, 7 days at 20° C., unmarked compounds (no asterisk, not 40 or 10 ppm)
# [16] = sprayed 17 h after inoculation, unmarked compounds (no asterisk, not 40 or 10 ppm)
# [17] = sprayed 24 h after inoculation, unmarked compounds (no asterisk, not 40 or 10 ppm)
Structure (SMILES),"Test C disease rating (100 = 100% disease control, 0 = no disease control) (Phytophthora infestans [1]; [14])","Test E disease rating (100 = 100% disease control, 0 = no disease control) [2, 15]","Test D disease rating (100 = 100% disease control, 0 = no disease control) (Phytophthora infestans [3]; [16])","Test B disease rating (100 = 100% disease control, 0 = no disease control) (Plasmopara viticola; [17])",other results
Cc1cc(C(F)(F)F)nn1CC(=O)N1CCC(c2nc(C(=O)N(C)[C@H](C(N)=O)c3ccccc3)cs2)CC1 [compound 247],–,–,–,–,"Test C disease rating (100 = 100% disease control, 0 = no disease control) (Phytophthora infestans [1]; [4]): 90%; Test E disease rating (100 = 100% disease control, 0 = no disease control) [2, 4]: 0%; Test D disease rating (100 = 100% disease control, 0 = no disease control) (Phytophthora infestans [3]; [5]): 17%; Test B disease rating (100 = 100% disease control, 0 = no disease control) (Plasmopara viticola; [6]): 0%"
Cc1cc(C(F)(F)F)nn1CC(=O)N1CCC(c2nc(C(=O)N(C)Cc3ccccc3)cs2)CC1 [compound 248],–,–,–,–,"Test C disease rating (100 = 100% disease control, 0 = no disease control) (Phytophthora infestans [1]; [4]): 100%; Test E disease rating (100 = 100% disease control, 0 = no disease control) [2, 4]: 53%; Test D disease rating (100 = 100% disease control, 0 = no disease control) (Phytophthora infestans [3]; [5]): 80%; Test B disease rating (100 = 100% disease control, 0 = no disease control) (Plasmopara viticola; [6]): 88%"
Cc1cc(C(F)(F)F)nn1CC(=O)N1CCC(c2nc(C(=O)N(C)C(C)c3ccccc3F)cs2)CC1 (stereo not shown) [compound 250],–,–,–,–,"Test C disease rating (100 = 100% disease control, 0 = no disease control) (Phytophthora infestans [1]; [7]): 97%; Test E disease rating (100 = 100% disease control, 0 = no disease control) [2, 7]: 0%; Test D disease rating (100 = 100% disease control, 0 = no disease control) (Phytophthora infestans [3]; [8]): 71%; Test B disease rating (100 = 100% disease control, 0 = no disease control) (Plasmopara viticola; [9]): 97%"
Cc1cc(C(F)(F)F)nn1CC(=O)N1CCC(c2nc(C(=O)N(C)C(C)c3ccccc3Cl)cs2)CC1 (stereo not shown) [compound 251],–,–,–,–,"Test C disease rating (100 = 100% disease control, 0 = no disease control) (Phytophthora infestans [1]; [7]): 100%; Test E disease rating (100 = 100% disease control, 0 = no disease control) [2, 7]: 0%; Test D disease rating (100 = 100% disease control, 0 = no disease control) (Phytophthora infestans [3]; [8]): 97%; Test B disease rating (100 = 100% disease control, 0 = no disease control) (Plasmopara viticola; [9]): 100%"
Cc1cc(C(F)(F)F)nn1CC(=O)N1CCC(c2nc(C(=O)N(C)C(C)c3ccccc3Br)cs2)CC1 (stereo not shown) [compound 252],–,–,–,–,"Test C disease rating (100 = 100% disease control, 0 = no disease control) (Phytophthora infestans [1]; [10]): 99; Test E disease rating (100 = 100% disease control, 0 = no disease control) [2, 11]: 19; Test D disease rating (100 = 100% disease control, 0 = no disease control) (Phytophthora infestans [3]; [12]): 85; Test B disease rating (100 = 100% disease control, 0 = no disease control) (Plasmopara viticola; [13]): 99"
Cc1cc(C(F)(F)F)nn1CC(=O)N1CCC(c2nc(C(=O)N(C)C(c3ccc(Cl)cc3)C(F)(F)F)cs2)CC1 (stereo not shown) [compound 253],–,–,–,–,"Test C disease rating (100 = 100% disease control, 0 = no disease control) (Phytophthora infestans [1]; sprayed the day before inoculation, tested at 40 ppm (*)): 90; Test E disease rating (100 = 100% disease control, 0 = no disease control) ([2]; sprayed the day before inoculation, 7 days at 20° C., tested at 40 ppm (*)): 0; Test D disease rating (100 = 100% disease control, 0 = no disease control) (Phytophthora infestans [3]; sprayed 17 h after inoculation, tested at 40 ppm (*)): 67; Test B disease rating (100 = 100% disease control, 0 = no disease control) (Plasmopara viticola; sprayed 24 h after inoculation, tested at 40 ppm (*)): 96"
COc1ccccc1C(C)N(C)C(=O)c1csc(C2CCN(C(=O)Cn3nc(C(F)(F)F)cc3C)CC2)n1 (stereo not shown) [compound 255],–,–,–,–,"Test C disease rating (100 = 100% disease control, 0 = no disease control) (Phytophthora infestans [1]; [10]): 9; Test E disease rating (100 = 100% disease control, 0 = no disease control) [2, 11]: 0; Test D disease rating (100 = 100% disease control, 0 = no disease control) (Phytophthora infestans [3]; [12]): 0; Test B disease rating (100 = 100% disease control, 0 = no disease control) (Plasmopara viticola; [13]): 25"
C[C@@H](NC(=O)c1csc(C2CCN(C(=O)Cc3cccc(Br)c3)CC2)n1)c1ccc(F)cc1 [compound 271],67,0,0,7,–
C[C@@H](NC(=O)c1csc(C2CCN(C(=O)Cc3cccc(Br)c3)CC2)n1)C1CCCCC1 [compound 272],50,0,0,14,–
C[C@@H](NC(=O)c1csc(C2CCN(C(=O)Cc3cccc(Br)c3)CC2)n1)c1ccc([N+](=O)[O-])cc1 [compound 273],0,0,0,44,–
Cc1ccc([C@@H](C)NC(=O)c2csc(C3CCN(C(=O)Cc4cccc(Br)c4)CC3)n2)cc1 [compound 274],37,0,0,29,–
C[C@@H](NC(=O)c1csc(C2CCN(C(=O)Cc3cccc(Br)c3)CC2)n1)c1ccccc1F [compound 276],17,0,0,30,–
C[C@@H](NC(=O)c1csc(C2CCN(C(=O)Cc3cccc(Br)c3)CC2)n1)c1cccc(C(F)(F)F)c1 [compound 277],9,0,0,15,–
C[C@@H](NC(=O)c1csc(C2CCN(C(=O)Cc3cccc(Br)c3)CC2)n1)c1ccc(Cl)cc1 [compound 280],24,0,0,0,–
COc1cccc([C@@H](C)NC(=O)c2csc(C3CCN(C(=O)Cc4cccc(Br)c4)CC3)n2)c1 [compound 281],0,0,0,15,–
C=CCN(C(=O)c1csc(C2CCN(C(=O)Cc3cc(C)ccc3C)CC2)n1)[C@H](C)c1ccccc1 [compound 284],21,0,0,10,–
Cc1ccc(C)c(CC(=O)N2CCC(c3nc(C(=O)N(C(C)C)[C@H](C)c4ccccc4)cs3)CC2)c1 [compound 285],25,0,0,10,–
CCN(C(=O)c1csc(C2CCN(C(=O)Cc3cc(C)ccc3C)CC2)n1)[C@H](C)c1ccccc1 [compound 286],23,52,0,39,–
CCCN(C(=O)c1csc(C2CCN(C(=O)Cc3cc(C)ccc3C)CC2)n1)[C@H](C)c1ccccc1 [compound 287],50,0,0,0,–
Cc1cc(C(F)(F)F)nn1CC(=O)N1CCC(c2nc(C(=O)N3CCCC3c3ccc(Cl)cc3)cs2)CC1 (stereo not shown) [compound 290],90,0,26,0,–
Cc1cc(C(F)(F)F)nn1CC(=O)N1C(C)CN(c2nc(C(=O)N(C)[C@@H]3CCCc4ccccc43)cs2)CC1C (stereo partly shown) [compound 292],100,0,93,71,–
Cc1cc(C(F)(F)F)nn1CC(=O)N1CCN(c2nc(C(=O)N(C)[C@@H]3CCCc4ccccc43)cs2)CC1C (stereo partly shown) [compound 293],100,0,99,100,–
Cc1cc(C(F)(F)F)nn1CC(=O)N1CCC(c2nc(C(=O)NC3CCCc4ccccc43)cs2)CC1 (stereo not shown) [compound 294],100,0,96,99,–
Cc1cc(C(F)(F)F)nn1CC(=O)N1CCC(c2nc(C(=O)N3Cc4ccccc4C3)cs2)CC1 [compound 295],95,0,39,39,–
Cc1cc(C(F)(F)F)nn1CC(=O)N1CCC(c2nc(C(=O)N3CCc4ccccc4C3)cs2)CC1 [compound 296],100,0,93,82,–
